Reference: PMC7997032, “Organic synthesis and anti-influenza A virus activity of cyclobakuchiols A, B, C, and D” (PLoS ONE, 2021)
Several values for one entry are separate records, joined by “and”; a condition that tells them apart may be missing. Equal values may be shown once.

Test system: MDCK cells
Assay: MTT assay (cytotoxicity against MDCK cells)
Format: cell-based, canine
Conditions: MDCK cells; for MTT, DMSO as 100 (DMSOを 100として), ave / MTT 72h AVE (DMSO = 100): 72h; for MTT, DMSO as 100 (DMSOを 100として), ave: mean of 5 wells (200409 #1 and #3); for MTT 72h AVE (DMSO = 100): summary AVE; for MTT 24h, AVE (DMSO as 100) / MTT 24h, 570-650nm, DMSO as 100, ave: mean of 5 wells from 3 experiments; for MTT 24h, AVE (DMSO as 100): relative to DMSO = 100; for MTT 24h, 570-650nm, DMSO as 100, single replicate: individual wells (200331; 200403 #2 1,2; 200403 #3 1,2); for 570-650nm (MTT absorbance, single wells) / 570-650nm ave (mean MTT absorbance of 5 wells) / MTT absorbance with DMSO as 100 (DMSOを 100として), single wells: MTT 72h; for 570-650nm (MTT absorbance, single wells): experiments #1-#3, duplicate wells; for MTT absorbance with DMSO as 100 (DMSOを 100として), single wells: relative to mean of DMSO
Description: 1–5 (0.8–100 μM) were prepared in DMSO (100 μM, 1%; 50 μM, 0.5%; 25 μM, 0.25%; 12.5 μM, 0.125%; 6.3 μM, 0.063%; 3.1 μM, 0.031%; 1.6 μM, 0.016%; 0.8 μM, 0.008%) and mixed with infection medium (DMEM supplemented with 1% bovine serum albumin (BSA; Wako), P/S and 4 mM L-glutamine). The resulting mixture was added to the cells and incubated for 24 or 72 h at 37°C in the presence of 5% CO2. After incubation, cell viability was determined using an MTT cell count kit (Nacalai Tesque) according to the manufacturer’s instructions, as previously described.

[1] = 3.13uM (3.125uM in summary block)

Row | Compound | MTT, DMSO as 100 (DMSOを 100として), ave (0.78uM) | MTT, DMSO as 100 (DMSOを 100として), ave (1.56uM) | MTT, DMSO as 100 (DMSOを 100として), ave (3.125uM) | MTT 72h AVE (DMSO = 100) (6.25 (uM)) | MTT 72h AVE (DMSO = 100) (12.5 (uM)) | MTT 72h AVE (DMSO = 100) (25 (uM)) | MTT 72h AVE (DMSO = 100) (50 (uM)) | MTT 72h AVE (DMSO = 100) (100 (uM)) | MTT 24h, AVE (DMSO as 100) (0.78 uM) | MTT 24h, AVE (DMSO as 100) (1.56 uM) | MTT 24h, 570-650nm, DMSO as 100, single replicate (3.125uM) | MTT 24h, 570-650nm, DMSO as 100, ave (3.125uM) | MTT 24h, 570-650nm, DMSO as 100, single replicate (6.25uM) | MTT 24h, 570-650nm, DMSO as 100, ave (6.25uM) | MTT 24h, 570-650nm, DMSO as 100, single replicate (12.5uM) | MTT 24h, 570-650nm, DMSO as 100, ave (12.5uM) | MTT 24h, 570-650nm, DMSO as 100, single replicate (25uM) | MTT 24h, 570-650nm, DMSO as 100, ave (25uM) | MTT 24h, 570-650nm, DMSO as 100, single replicate (50uM) | MTT 24h, 570-650nm, DMSO as 100, ave (50uM) | other results
1 | C=C[C@]1(C)CC[C@@H](C(C)(C)O)[C@H](c2ccc(O)cc2)C1 [Cyclo. D] | 98.8071 | 117.006 | 147.657 | 128.371 | 127.934 | 145.717 | 126.261 | 126.655 | 97.8994 | 96.8321 | 84.6917 and 82.6734 and 92.4491 and 113.857 and 84.268 | 91.5878 | 85.6335 and 89.7131 and 106.9 and 111.896 and 88.988 | 96.6263 | 81.4488 and 91.9219 and 102.896 and 113.782 and 96.5227 | 97.3142 | 77.2963 and 96.4082 and 113.294 and 115.224 and 87.3126 | 97.9071 | 91.2134 and 100.963 and 94.7794 and 115.361 and 101.24 | 100.712 | MTT 24h, 570-650nm, DMSO as 100, single replicate (100uM): 94.6456 and 103.228 and 107.83 and 131.616 and 116.582; MTT 24h, 570-650nm, DMSO as 100, ave (100uM): 110.78; 570-650nm (MTT absorbance, single wells) (0.78uM): 0.4378 and 0.7486 and 0.8741 and 0.5119 and 0.7887 and 0.8621; 570-650nm (MTT absorbance, single wells) [1]: 0.9735 and 1.011 and 0.8858 and 1.0444 and 0.9175 and 1.1144; 570-650nm ave (mean MTT absorbance of 5 wells) (6.25uM): 0.8781; MTT absorbance with DMSO as 100 (DMSOを 100として), single wells (6.25uM): 79.8684 and 128.626 and 158.904 and 136.433 and 138.026; 570-650nm ave (mean MTT absorbance of 5 wells) (12.5uM): 1.0183; 570-650nm (MTT absorbance, single wells) (12.5uM): 0.9745 and 1.0068 and 0.9175 and 1.0063 and 1.0002 and 1.1607; MTT absorbance with DMSO as 100 (DMSOを 100として), single wells (12.5uM): 126.426 and 115.27 and 145.824 and 125.66 and 126.489; 570-650nm ave (mean MTT absorbance of 5 wells) (25uM): 1.096; 570-650nm (MTT absorbance, single wells) (25uM): 1.0789 and 1.1027 and 0.9947 and 1.0822 and 1.1213 and 1.1788; MTT absorbance with DMSO as 100 (DMSOを 100として), single wells (25uM): 143.89 and 132.256 and 156.734 and 149.089 and 146.616; 570-650nm ave (mean MTT absorbance of 5 wells) (50uM): 1.152; 570-650nm (MTT absorbance, single wells) (50uM): 1.148 and 1.1434 and 1.0891 and 1.1437 and 1.0821 and 1.3031; MTT absorbance with DMSO as 100 (DMSOを 100として), single wells (50uM): 125.321 and 119.338 and 142.787 and 118.571 and 125.288; 570-650nm ave (mean MTT absorbance of 5 wells) (100uM): 1.192; 570-650nm (MTT absorbance, single wells) (100uM): 1.3579 and 1.2781 and 1.2394 and 0.9368 and 1.1592 and 1.3488; MTT absorbance with DMSO as 100 (DMSOを 100として), single wells (100uM): 99.5008 and 131.641 and 143.261 and 123.123 and 135.751
2 | C=C[C@]1(C)CC[C@@H](C(=C)C)[C@H](c2ccc(O)cc2)C1 [Cyclo. B] | 97.4368 | 107.487 | 135.205 | 152.012 | 128.856 | 133.275 | 92.332 | 27.1545 | 105.371 | 93.7053 | 97.7259 and 87.8578 and 108.85 and 106.215 and 84.4914 | 97.028 | 100.056 and 92.1514 and 106.191 and 111.594 and 90.247 | 100.048 | 100.027 and 92.2079 and 111.97 and 107.481 and 100.019 | 102.341 | 93.3176 and 99.811 and 119.964 and 115.104 and 108.65 | 107.369 | 101.366 and 118.852 and 85.3652 and 130.523 and 116.385 | 110.498 | MTT 24h, 570-650nm, DMSO as 100, single replicate (100uM): 120.469 and 116.882 and 135.616 and 105.182 and 78.3439; MTT 24h, 570-650nm, DMSO as 100, ave (100uM): 111.299; 570-650nm (MTT absorbance, single wells) (0.78uM): 1.0803 and 0.7822 and 0.6986 and 0.7618 and 0.6844 and 0.8059; 570-650nm (MTT absorbance, single wells) (1.56uM): 0.9938 and 0.9382 and 0.7725 and 0.5035 and 0.9217 and 0.7676; 570-650nm (MTT absorbance, single wells) [1]: 0.8489 and 0.8759 and 0.9309 and 0.9208 and 0.9982 and 0.8279; 570-650nm ave (mean MTT absorbance of 5 wells) (6.25uM): 1.04; 570-650nm (MTT absorbance, single wells) (6.25uM): 0.8643 and 1.0571 and 1.004 and 1.1478 and 1.1256 and 0.8768; MTT absorbance with DMSO as 100 (DMSOを 100として), single wells (6.25uM): 154.547 and 146.784 and 167.807 and 164.561 and 126.36; 570-650nm ave (mean MTT absorbance of 5 wells) (12.5uM): 1.026; 570-650nm (MTT absorbance, single wells) (12.5uM): 1.0196 and 0.9592 and 1.0242 and 0.9589 and 1.0117 and 1.1742; MTT absorbance with DMSO as 100 (DMSOを 100として), single wells (12.5uM): 120.471 and 128.675 and 147.52 and 127.104 and 120.509; 570-650nm ave (mean MTT absorbance of 5 wells) (25uM): 1.002; 570-650nm ave (mean MTT absorbance of 5 wells) (50uM): 0.8426; 570-650nm ave (mean MTT absorbance of 5 wells) (100uM): 0.2557; 570-650nm (MTT absorbance, single wells) (100uM): 0.2419 and 0.2859 and 0.234 and 0.2603 and 0.2251 and 0.273; MTT absorbance with DMSO as 100 (DMSOを 100として), single wells (100uM): 27.6474 and 24.854 and 28.9963 and 23.9087 and 30.3664
